Target: T1, CCR-3 (Homo sapiens, UniProt P51677)
T1 sequence (P51677 1-355): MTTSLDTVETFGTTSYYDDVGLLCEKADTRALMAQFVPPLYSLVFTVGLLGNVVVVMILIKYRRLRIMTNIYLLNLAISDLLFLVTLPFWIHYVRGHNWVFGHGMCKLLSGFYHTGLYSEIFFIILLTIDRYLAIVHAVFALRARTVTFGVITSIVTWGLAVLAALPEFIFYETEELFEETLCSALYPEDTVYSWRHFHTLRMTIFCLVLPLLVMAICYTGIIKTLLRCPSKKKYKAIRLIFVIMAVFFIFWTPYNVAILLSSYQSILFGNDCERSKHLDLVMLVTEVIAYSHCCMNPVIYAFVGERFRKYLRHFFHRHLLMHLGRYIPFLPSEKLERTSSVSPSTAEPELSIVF
Test: Inhibition of eotaxin-induced chemotaxis of CCR-3 transfectant cells (CCR3/U937)
Assay type: cell-based
Parameters: expressed in transfected cells; host or cells: U937
Conditions: U-937, compound 10 μM, eotaxin 1×10^−9 M, Table 3a
Experimental: The inhibitory activity of the compounds against eotaxin-induced chemotaxis was determined by measuring the inhibition of migration of CCR-3 transfectant cells (CCR3/U937), using a minor modification of the method described by Ohashi, H. et al., Int Arch Allergy Immunol. (1999) 118, 44-50. CCR-3 transfectant cells were grown in PRMI1640 medium containing 10% fetal calf serum (FCS) and Geneticin 418 (0.8 mg/ml). For the assay, CCR-3 transfectant cells were isolated and resuspended at 1×10^7 cells/ml in assay medium (RPMI 1640 medium containing 0.1% bovine serum albumin (BSA)). The chemotaxis assay was performed in a 24-well culture plate. Human eotaxin suspended in assay medium was added to the wells at 1×10^−9 M along with test compounds at various concentrations. For a positive control, eotaxin was added to the wells without a test compound, and for a negative control, neither eotaxin nor a test compound was added to the walls. Chemotaxicell (Kurabo Co., Ltd.) having 5 micrometers pore size were inserted into each well and 100 micro liters of CCR-3 transfectant cells suspension were added to the top chamber. The plates were incubated at 37° C. for 1 hour. After incubation, migrated cells in lower wells were diluted and counted by particle size distribution analyzer (CDP-500, Sysmex Co., Ltd.)

Row | SMILES | inhibition at 10 µM
1 | CCN(CCc1ccc(Cl)cc1)CC(O)CNC(=O)Nc1ccccc1 (centres unmarked) [Compound 163, N-phenylcarbamoyl-N′-[2-(4-chlorophenyl)ethyl]-N′-ethyl 2-hydroxy-1,3-diaminopropane] | 96%
2 | O=C(O)CCCN(CCCNC(=S)Nc1ccc(Cl)cc1)C1CCCc2ccccc21 (centres unmarked) [Compound 164, 4-[[3-(4-chlorophenylthioureido)propyl](1,2,3,4-tetrahydro-1-naphthyl)amino]butanoic acid] | 100%
3 | CC(C)(C)OC(=O)[C@H](CCN(CCCC(=O)O)C1CCCc2ccccc21)NC(=O)Nc1ccc(Br)cc1 (stereo partly drawn) [Compound 165, 4[[(3S)-3-(4-bromophenylureido)-3-(tert-butoxycarbonyl)propyl](1,2,3,4-tetrahydro-1-naphthyl)amino]butanoic acid] | 100%
4 | O=C(O)CCCN(CC(O)CNC(=O)Nc1ccc(Br)cc1)C1CCCc2ccccc21 (centres unmarked) [Compound 167, 4-[[3-(4-bromophenylureido)-2-hydroxypropyl](1,2,3,4-tetrahydro-1-naphthyl)amino]butanoic acid] | 100%
5 | O=C(O)CCCN(CCCNC(=O)Nc1ccc(Br)cc1)C1CCc2ccccc21 (centres unmarked) [Compound 173, 4-[[3-(4-Bromophenylureido)propyl](1-indanyl)amino]butanoic acid] | 100%
6 | CC(C)NC(=O)[C@H](CCN(CCCC(=O)O)C1CCCc2ccccc21)NC(=O)Nc1ccc(Br)cc1 (stereo partly drawn) [Compound 286, 4-[[(3S)-3-(4-Bromophenylureido)-3-(isopropylcarbamoyl)propyl](1,2,3,4-tetrahydro-1-naphthyl)amino]butanoic acid] | 100%
7 | O=C(O)CCCN(CCCNC(=S)Nc1ccc(Br)cc1)[C@@H]1CCc2ccccc21 [Compound 288, 4-[[3(4-Bromophenylthioureido)propyl][(1R)-1-indanyl]amino]butanoic acid] | 100%
8 | O=C(O)CCCN(CCCNC(=S)Nc1ccc(Br)cc1)[C@@H]1CCCc2ccccc21 [Compound 290, 4-[[3(4-Bromophenylthioureido)propyl][(1R)-1,2,3,4-tetrahydro-1-naphthyl]amino]butanoic acid] | 100%

Same assay, conditions: compound 10 μM, eotaxin 1×10^−9 M, Table 3a

Row | SMILES | Chemotaxis Assay 10 μM (inhibition %)
9 | CCN(CCNC(=O)Nc1ccc([N+](=O)[O-])cc1)CCc1ccc(Cl)cc1 [Compound 4] | 59%
10 | CCN(CCCNC(=O)Nc1ccc(Cl)cc1)CCc1ccc(Cl)cc1 [Compound 6] | 100%
11 | CCN(CCCNC(=O)Nc1ccccc1OC)CCc1ccc(Cl)cc1 [Compound 9] | 100%
12 | COc1ccc(CN(CCCNC(=O)Nc2ccccc2)CCc2ccc(Cl)cc2)cc1 [Compound 18] | 58%
13 | O=C(NCCCN(CCc1ccc(Cl)cc1)Cc1cccnc1)Nc1ccccc1 [Compound 23] | 82%
14 | O=C(NCCCN(CCc1ccccc1)CCc1ccc(Cl)cc1)Nc1ccccc1 [Compound 25] | 88%
15 | CN(CCCNC(=O)Nc1ccccc1)CCc1ccc(Cl)cc1 [Compound 27] | 97%
16 | COC(=O)CCCN(CCCNC(=O)Nc1ccc(Br)cc1)Cc1cccs1 [Compound 39] | 78%
17 | COC(=O)CCCN(CCCNC(=O)Nc1ccc(Br)cc1)CCc1ccc(OC)c(OC)c1 [Compound 43] | 50%
18 | COC(=O)CCCN(CCNC(=O)Nc1ccc(Br)cc1)C1CCCc2ccccc21 (centres unmarked) [Compound 50] | 54%
19 | O=C(O)CCCN(CCNC(=O)Nc1ccc(Br)cc1)C1CCCc2ccccc21 (centres unmarked) [Compound 81] | 58%
20 | CC(C)(C)OC(=O)[C@H](CCN(CCCC(=O)O)C1CCCc2ccccc21)NC(=O)Nc1ccc(Br)cc1 (stereo partly drawn) [Compound 166, 4[[(3S)-3-(4-bromophenylureido)-3-(tert-butoxycarbonyl)propyl](1,2,3,4-tetrahydro-1-naphthyl)amino]butanoic acid] | 100%
21 | CCCCOC(=O)c1ccc(NC(=O)NCCCN(CCCC(=O)O)C2CCCc3ccccc32)cc1 (centres unmarked) [Compound 237] | 100%
22 | O=C(O)CCCN(CCCNC(=S)Nc1ccc(Br)cc1)C1CCCc2ccccc21 (centres unmarked) [Compound 246] | 100%
23 | O=C(O)CCCN(CCCNC(=S)Nc1cccc(Br)c1)C1CCCc2ccccc21 (centres unmarked) [Compound 247] | 99%
24 | O=C(O)CCCN(CCCNC(=S)Nc1cccc(Cl)c1)C1CCCc2ccccc21 (centres unmarked) [Compound 248] | 100%

Row | SMILES | Chemotaxis Assay 10 μM (inhibition %)
25 | O=C(O)CCCN(CCCNC(=S)Nc1ccc(I)cc1)C1CCCc2ccccc21 (centres unmarked) [Compound 249] | 100%
26 | Cc1ccc(NC(=S)NCCCN(CCCC(=O)O)C2CCCc3ccccc32)cc1 (centres unmarked) [Compound 250] | 99%
27 | O=C(O)CCCN(CCCNC(=S)Nc1ccc(Cl)c(Cl)c1)C1CCCc2ccccc21 (centres unmarked) [Compound 251] | 100%
28 | COC(=O)CCCN(CCCNC(=S)Nc1ccc(Br)cc1)C1CCCc2ccccc21 (centres unmarked) [Compound 252] | 100%
29 | COC(=O)CCCN(CCCNC(=S)Nc1cccc(Br)c1)C1CCCc2ccccc21 (centres unmarked) [Compound 253] | 74%
30 | COC(=O)CCCN(CCCNC(=S)Nc1ccc(I)cc1)C1CCCc2ccccc21 (centres unmarked) [Compound 255] | 100%
31 | COC(=O)CCCN(CCCNC(=S)Nc1ccc(Cl)c(Cl)c1)C1CCCc2ccccc21 (centres unmarked) [Compound 256] | 100%
32 | O=C(O)CCCN(CCCNC(=S)Nc1ccc(F)cc1)C1CCCc2ccccc21 (centres unmarked) [Compound 257] | 100%
33 | O=C(O)CCCN(CCCNC(=O)Nc1cc(Cl)nc(Cl)c1)C1CCCc2ccccc21 (centres unmarked) [Compound 279] | 96%
34 | COC(=O)CCCN(CC[C@H](NC(=O)Nc1ccc(Br)cc1)C(=O)OC(C)(C)C)C1CCCc2ccccc21 (some centres unmarked) [Compound 281] | 100%
35 | COC(=O)CCCN(CC[C@H](NC(=O)Nc1ccc(Br)cc1)C(=O)NC(C)C)C1CCCc2ccccc21 (stereo partly drawn) [Compound 282, methyl 4-[[(3S)-3-(4-bromophenylureido)-3-(isopropylcarbamoyl)propyl](1,2,3,4-tetrahydro-1-naphthyl)amino]butylate] | 100%
36 | COC(=O)CCCN(CC[C@H](NC(=O)Nc1ccc(Br)cc1)C(=O)NCc1ccccc1)C1CCCc2ccccc21 (stereo partly drawn) [Compound 283, Methyl 4-[[(3S)-3-(4-bromophenylureido)-3-(benzylcarbamoyl)propyl](1,2,3,4-tetrahydro-1-naphthyl)amino]butylate] | 100%
37 | CC(C)NC(=O)[C@H](CCN(CCCC(=O)O)C1CCCc2ccccc21)NC(=O)Nc1ccc(Br)cc1 (stereo partly drawn) [Compound 284, 4-[[(3S)-3-(4-Bromophenylureido)-3-(isopropylcarbamoyl)propyl](1,2,3,4-tetrahydro-1-naphthy1)amino]butanoic acid] | 95%
38 | O=C(O)CCCN(CC[C@H](NC(=O)Nc1ccc(Br)cc1)C(=O)NCc1ccccc1)C1CCCc2ccccc21 (stereo partly drawn) [Compound 287, 4-[[(3S)-3-(4-Bromophenylureido)-3-(benzylcarbamoyl)propyl](1,2,3,4-tetrahydro-1-naphthyl)amino]butanoic acid] | 100%
39 | CC(c1ccccc1)N(CCCNC(=S)Nc1ccc(Br)cc1)CCCC(=O)O (centres unmarked) [Compound 289] | 100%

Same assay, conditions: compound 10 μM, eotaxin 1×10^−9 M, Table 3c

Row | SMILES | Chemotaxis Assay 10 μM (inhibition %)
40 | CC[N+](CC)(CCCNC(=S)Nc1ccc(Br)cc1)CCc1ccc(Cl)cc1.[I-] [Compound 335] | 100%
41 | CC[N+](CC)(CCCNC(=S)Nc1ccccc1)CCc1ccc(Cl)cc1.[I-] [Compound 336] | 100%
